Results reported in patent US20230321033A1, “THIOPHEN COMPOUNDS FOR USE IN THE TREATMENT OF RENAL FIBROSIS” (ENYO PHARMA, priority 2020, published 2023).
Entries after “also recorded” stand apart in the source; their conditions may differ.

Legend:
[1] = tested on: kidneys of NASH mice (AMLN diet); assay: Renal inflammation in NASH mouse model, CD3 stained kidney sections; format: in vivo; settings: mice on AMLN diet 30 weeks, then PO treatment 8 weeks twice a day, 7 or 20 mg/kg; kidneys at sacrifice
Experimental: (§1) Compound #157 was evaluated in a mouse model of NASH. Mice were fed with an AMLN diet (high in fat (40%), fructose (22%) and cholesterol (2%)) for 30 weeks prior treatment with Compound #157 for 8 weeks twice a day at a dose of 7 or 20 mg/kg.
(§2) The livers and kidneys were collected at sacrifice. Fibrosis, in particular tubulointerstitial fibrosis, has been evaluated by quantification of the picrosirius red (PSR) staining positive areas. Inflammation has been quantified on CD3 stained sections.

[2] = tested on: kidneys of NASH mice (AMLN diet); assay: Renal fibrosis in NASH mouse model, picrosirius red (PSR) staining of kidneys; format: in vivo; settings: mice on AMLN diet 30 weeks, then PO treatment 8 weeks twice a day, 7 or 20 mg/kg; kidneys at sacrifice
Experimental: as §1, §2

O=C(Nc1scc(C2CCc3ccccc3C2)c1C(=O)O)c1ccccc1 (stereo not drawn) [Compound #157] was tested, and the “decrease of renal inflammation (CD3 stained sections)” value [1] was 50%, the “renal inflammation (lymphocytes infiltration), quantified on CD3 stained sections” value [1] was “attenuate significantly inflammation; also recorded: significantly decreases renal inflammation” and the “renal fibrosis (tubulointerstitial), quantification of picrosirius red (PSR) staining positive areas” value [2] was “completely resolve fibrosis; also recorded: significantly decreases renal fibrosis”.
